Measurements taken from ChEMBL document CHEMBL1148979, “Thiobutacin, a novel antifungal and antioomycete antibiotic from Lechevalieria aerocolonigenes” (2004).
≈ marks a conversion by molar mass, not a printed value.

Key:
Format in all cases: functional
[1] = test system: Phytophthora capsici; assay: Antioomycete activity against Phytophthora capsici by microtiter broth dilution assay
[2] = test system: Botrytis cinerea; assay: Antifungal activity against Botrytis cinerea
[3] = test system: Saccharomyces cerevisiae; assay: Antimicrobial activity against Saccharomyces cerevisiae

Row | Compound | MIC [1] | MIC [2] | MIC [3]
1 | COCC(=O)N(c1c(C)cccc1C)C(C)C(=O)OC (stereo not drawn) [METALAXYL] | 30 µg/mL (≈ 107 µM) |  | 
2 | Clc1ccc(COC(Cn2ccnc2)c2ccc(Cl)cc2Cl)c(Cl)c1 (stereo not drawn) [MICONAZOLE] |  | 10 µg/mL (≈ 24 µM) | 5 µg/mL (≈ 12 µM)
3 | CSC(CC(=O)c1ccccc1N)C(=O)O (stereo not drawn) [THIOBUTACIN] | 10 µg/mL (≈ 41.8 µM) | 50 µg/mL (≈ 209 µM) | 30 µg/mL (≈ 125 µM)
4 | NYSTATIN |  | 3 µg/mL | 7 µg/mL
